Results: ChEMBL document CHEMBL5528064, “Invention of MK-7845, a SARS-CoV-2 3CL Protease Inhibitor Employing a Novel Difluorinated Glutamine Mimic” (J Med Chem, 2024)
Converted amounts (≈) assume the structure as drawn.

How the values were obtained:
Cytochrome P450 2B6 [1] = biological target: T1, Cytochrome P450 2B6 (Homo sapiens, UniProt P20813); test: Induction of CYP2B6 in human hepatocytes assessed as increase in CYP2B6 mRNA level at 20 uM measured after 48 hrs by PCR analysis relative to control; assay type: ADME, cell-based, Hepatocyte
T1 sequence (P20813 whole entry): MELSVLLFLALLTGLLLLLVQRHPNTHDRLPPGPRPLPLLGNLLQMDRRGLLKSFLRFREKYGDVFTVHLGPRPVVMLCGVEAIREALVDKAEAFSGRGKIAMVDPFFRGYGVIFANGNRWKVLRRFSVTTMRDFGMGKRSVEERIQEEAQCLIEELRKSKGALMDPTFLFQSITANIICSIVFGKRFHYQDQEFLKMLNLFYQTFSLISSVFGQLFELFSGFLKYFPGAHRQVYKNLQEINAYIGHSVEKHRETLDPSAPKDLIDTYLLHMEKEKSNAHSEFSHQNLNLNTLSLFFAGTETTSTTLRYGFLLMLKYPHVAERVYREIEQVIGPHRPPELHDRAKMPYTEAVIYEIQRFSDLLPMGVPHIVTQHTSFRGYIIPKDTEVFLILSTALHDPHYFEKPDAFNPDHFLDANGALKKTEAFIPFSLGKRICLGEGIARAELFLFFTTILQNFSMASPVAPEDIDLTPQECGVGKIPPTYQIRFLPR

Cytochrome P450 3A4 = Cytochrome P450 3A4 (Homo sapiens, UniProt P08684); test: Induction of CYP3A4 in human hepatocytes assessed as increase in CYP3A4 mRNA level at 20 uM measured after 48 hrs by PCR analysis relative to control; assay type: ADME, cell-based, Hepatocyte
Cytochrome P450 3A4, sequence (P08684 whole entry): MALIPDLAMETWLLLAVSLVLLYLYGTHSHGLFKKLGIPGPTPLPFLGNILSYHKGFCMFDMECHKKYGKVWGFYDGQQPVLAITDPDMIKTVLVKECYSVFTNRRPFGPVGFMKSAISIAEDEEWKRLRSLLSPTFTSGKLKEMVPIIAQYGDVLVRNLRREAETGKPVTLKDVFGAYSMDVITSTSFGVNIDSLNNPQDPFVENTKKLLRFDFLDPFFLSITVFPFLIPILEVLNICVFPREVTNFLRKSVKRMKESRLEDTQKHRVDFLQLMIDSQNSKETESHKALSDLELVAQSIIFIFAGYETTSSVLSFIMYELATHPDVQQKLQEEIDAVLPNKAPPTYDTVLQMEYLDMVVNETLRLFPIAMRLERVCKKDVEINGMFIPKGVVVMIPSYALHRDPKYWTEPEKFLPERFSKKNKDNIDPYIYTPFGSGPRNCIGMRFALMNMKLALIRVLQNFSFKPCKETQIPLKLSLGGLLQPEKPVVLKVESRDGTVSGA

[2] = Apparent permeability in MDCK cells; assay type: ADME, cell-based, Canis lupus familiaris; conditions: dog
[3] = Aqueous solubility of compound; assay type: physicochemical; conditions: buffer
[4] = Oral bioavailability in human; assay type: ADME, organism-based; conditions: in vivo
Cytochrome P450 1A2 = biological target: T2, Cytochrome P450 1A2 (Homo sapiens, UniProt P05177); test: Reversible inhibition of CYP1A2 in human liver microsomes using phenacetin as substrate incubated for 5 mins in presence of NADPH-generating system by LC-MS/MS analysis; assay type: ADME, Microsome
T2 sequence (P05177 whole entry): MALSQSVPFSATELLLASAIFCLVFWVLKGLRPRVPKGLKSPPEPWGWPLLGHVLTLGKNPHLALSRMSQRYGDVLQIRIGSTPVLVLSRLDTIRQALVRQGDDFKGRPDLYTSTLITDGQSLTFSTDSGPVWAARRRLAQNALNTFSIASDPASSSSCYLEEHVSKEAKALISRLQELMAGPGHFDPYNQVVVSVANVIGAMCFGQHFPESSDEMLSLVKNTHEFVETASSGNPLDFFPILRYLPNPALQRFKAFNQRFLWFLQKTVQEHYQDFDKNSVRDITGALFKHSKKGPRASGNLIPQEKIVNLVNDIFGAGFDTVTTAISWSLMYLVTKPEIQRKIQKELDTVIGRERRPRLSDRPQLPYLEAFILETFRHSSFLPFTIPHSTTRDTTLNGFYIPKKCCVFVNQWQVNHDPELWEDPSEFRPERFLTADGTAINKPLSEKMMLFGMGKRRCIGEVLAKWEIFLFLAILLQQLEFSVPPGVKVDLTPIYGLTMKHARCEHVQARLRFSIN

Cytochrome P450 2C8 = biological target: T3, Cytochrome P450 2C8 (Homo sapiens, UniProt P10632); test: Reversible inhibition of CYP2C8 in human liver microsomes using amodiaquine as substrate incubated for 5 mins in presence of NADPH-generating system by LC-MS/MS analysis; assay type: ADME, Microsome
T3 sequence (P10632 whole entry): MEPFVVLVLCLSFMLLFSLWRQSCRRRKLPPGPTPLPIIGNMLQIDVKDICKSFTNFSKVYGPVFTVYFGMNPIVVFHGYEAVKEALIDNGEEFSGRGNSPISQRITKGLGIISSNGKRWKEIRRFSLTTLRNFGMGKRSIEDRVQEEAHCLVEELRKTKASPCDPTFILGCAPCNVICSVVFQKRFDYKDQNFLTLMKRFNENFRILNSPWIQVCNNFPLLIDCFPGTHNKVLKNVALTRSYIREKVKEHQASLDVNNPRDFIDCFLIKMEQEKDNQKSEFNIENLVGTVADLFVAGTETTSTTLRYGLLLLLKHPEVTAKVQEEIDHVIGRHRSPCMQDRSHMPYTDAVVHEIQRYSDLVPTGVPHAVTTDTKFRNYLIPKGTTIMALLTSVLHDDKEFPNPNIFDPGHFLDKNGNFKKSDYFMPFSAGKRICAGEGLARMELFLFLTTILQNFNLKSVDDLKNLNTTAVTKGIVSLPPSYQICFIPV

Cytochrome P450 2C9 = Cytochrome P450 2C9 (Homo sapiens, UniProt P11712); test: Reversible inhibition of CYP2C9 in human liver microsomes using diclofenac as substrate incubated for 5 mins in presence of NADPH-generating system by LC-MS/MS analysis; assay type: ADME, Microsome
Cytochrome P450 2C9, sequence (P11712 whole entry): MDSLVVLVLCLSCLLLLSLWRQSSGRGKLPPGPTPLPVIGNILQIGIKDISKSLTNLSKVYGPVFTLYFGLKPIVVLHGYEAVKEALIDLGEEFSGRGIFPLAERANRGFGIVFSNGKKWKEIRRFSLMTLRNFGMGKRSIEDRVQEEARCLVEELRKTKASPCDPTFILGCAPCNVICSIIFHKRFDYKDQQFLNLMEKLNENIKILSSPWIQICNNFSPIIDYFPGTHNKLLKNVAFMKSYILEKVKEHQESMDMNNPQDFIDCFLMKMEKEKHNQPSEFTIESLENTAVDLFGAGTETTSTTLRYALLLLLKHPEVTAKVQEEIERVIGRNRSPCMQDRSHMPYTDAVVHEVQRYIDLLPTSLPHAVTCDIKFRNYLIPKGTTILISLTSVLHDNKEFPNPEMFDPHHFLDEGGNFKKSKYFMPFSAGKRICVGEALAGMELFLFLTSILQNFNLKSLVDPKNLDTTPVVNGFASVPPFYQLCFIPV

Cytochrome P450 2C19 = Cytochrome P450 2C19 (Homo sapiens, UniProt P33261); test: Reversible inhibition of CYP2C19 in human liver microsomes using S-mephenytoin as substrate incubated for 5 mins in presence of NADPH-generating system by LC-MS/MS analysis; assay type: ADME, Microsome
Cytochrome P450 2C19, sequence (P33261 whole entry): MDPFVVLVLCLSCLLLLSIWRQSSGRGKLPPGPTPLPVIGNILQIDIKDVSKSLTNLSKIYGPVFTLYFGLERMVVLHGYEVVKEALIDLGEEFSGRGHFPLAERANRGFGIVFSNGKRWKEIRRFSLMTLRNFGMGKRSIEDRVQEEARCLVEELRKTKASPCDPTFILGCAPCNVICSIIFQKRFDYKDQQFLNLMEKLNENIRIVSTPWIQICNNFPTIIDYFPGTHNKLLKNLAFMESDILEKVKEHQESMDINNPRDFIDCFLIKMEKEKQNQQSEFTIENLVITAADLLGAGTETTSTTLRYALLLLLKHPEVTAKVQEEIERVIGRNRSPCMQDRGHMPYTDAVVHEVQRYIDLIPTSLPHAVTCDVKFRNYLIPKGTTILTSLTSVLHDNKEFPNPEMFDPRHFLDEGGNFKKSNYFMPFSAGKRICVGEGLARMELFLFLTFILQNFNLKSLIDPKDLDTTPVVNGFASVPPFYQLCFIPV

Cytochrome P450 2B6 [5] = biological target: T1, Cytochrome P450 2B6; test: Reversible inhibition of CYP2B6 in human liver microsomes using bupropion as substrate incubated for 5 mins in presence of NADPH-generating system by LC-MS/MS analysis; assay type: ADME, Microsome
[6] = Plasma stability in rhesus monkey assessed as epimerization; assay type: ADME, cell-free, Macaca mulatta
[7] = Plasma protein binding in rat assessed as free fraction at 1 uM; assay type: ADME, cell-free
[8] = Plasma protein binding in monkey assessed as unbound fraction at 1 uM; assay type: ADME, cell-free, Macaca mulatta; conditions: rhesus monkey
SARS-CoV-2 [9] = test: Antiviral activity against SARS CoV-2 USA-WA1/2020 infected in B6.Cg-Tg(K18-ACE2)2Prlmn/J mouse assessed as log reduction in plaque-forming units in lung at […], po bid measured on day 4 post inoculation; assay type: functional, Severe acute respiratory syndrome coronavirus 2; conditions: time 4 day
SARS-CoV-2 [10] = test: Antiviral activity against SARS CoV-2 USA-WA1/2020 infected in po dosed B6.Cg-Tg(K18-ACE2)2Prlmn/J mouse assessed as reduction in viral RNA level administered orally twice daily and measured on day 4 post inoculation by RT-PCR analysis; assay type: functional, organism-based; conditions: Severe acute respiratory syndrome coronavirus 2, dose 100-500 mg/kg, time 4.0 day

CNC(=O)C(=O)[C@H](CCC(C)(F)F)NC(=O)[C@@H]1[C@H]2CCC[C@H]2CN1C(=O)[C@@H](NC(=O)OC)C(C)(C)C
Activity (Cytochrome P450 2B6 [1]): 7%
Activity (Cytochrome P450 3A4): 22%
Papp [2]: 5.7 ×10⁻⁶ cm/s
solubility [3]: 4500 µg/mL (≈ 8.71 mM)
bioavailability [4]: 67%
IC50 (Cytochrome P450 1A2): > 200 µM
IC50 (Cytochrome P450 2C8): > 200 µM
IC50 (Cytochrome P450 2C9): > 200 µM
IC50 (Cytochrome P450 2C19): > 200 µM
IC50 (Cytochrome P450 2B6 [5]): 159 µM
Stability [6]: Unstable
fraction unbound at 1 µM [7]: 0.1
fraction unbound at 1 µM [8]: 0.5
log(activity) (SARS-CoV-2 [9]): 1.7
Activity (SARS-CoV-2 [10]): Dose-Dependent Effect
